The record followed here is patent publication US5300284A, “Glycosaminoglycanase inhibitor andethane diol composition for maintenance of hair growth” (priority 1991, dated 1994).

This data set can be described thus: Flow-through skin penetration of 14C-labelled glucarolactone. It counts as in vitro ADME, pig. Particulars: 20 hours. The text has this:
In order to simulate human skin penetration in vivo, full thickness pig skin was used in a flow-through skin penetration cell system. For this purpose, the technique described by Bronough R L, and Stuart R F in "Methods for in vitro percutaneous absorption studies IV: The flow-throughdiffusion cell", published in J. Pharm.
This system allows for the study of percutaneous absorption from topically applied substances in a controlled manner, i.e. at controlled temperature and with constant receptor fluid flow rate. The flow-through skin penetration cell has a surface area of skin of 0.38 cm^2 exposed to a formulation containing a test substance. At time zero, 25 μl of a formulation containing tracer amounts of ^14 C-labelled glucarolactone was applied to the skin and left for 20 hours. During this period of penetration, receptor fluid flowing underneath the dermal side of the skin was collected in fractions at 2 hour intervals. At time 20 hours, the skin was vigorously washed to remove all non-absorbed material, the remaining receptor fluid in the cell also being collected at this time.
Subsequently, the piece of skin was detached from the cell and keratatomed at a thickness of about 1.3 mm. This procedure will separate the lower section of the dermis from that containing the stratum corneum, viable epidermis, upper part of dermis and neck of hair follicle. To refine further the picture of distribution of radioactivity, the upper section was subsequently tape stripped 5 times using transparent adhesive tape to remove residual radioactive materials adhering to the outer surface of the skin. All these sections were digested and counted for radioactivity. Each penetration cell therefore yielded 4 results:
i) transdermal penetration, i.e. the amount retrieved in receptor fluid flowing on the dermal side of the skin;
ii) tape strips, i.e. amounts of radio active material adhering to the skin surface;
iii) upper section of skin, i.e. remainder of stratum corneum, neck of hair follicle, viable epidermis and upper part of dermis;
iv) lower section of skin, i.e. remainder of dermis containing the remaining part of hair follicles and dermal papillae.
The results obtained from categories ii), iii) and iv) above together constitute the amounts retrieved from within the skin, i.e. dermal penetration. The results may be expressed as percentage of dose applied, or as the actual amounts delivered.
The following formulation was used to determine penetration and delivery of glucarolactone in accordance with the Bronaugh flow-through skin penetration cell technique:
Scintillation counting was employed to determine the amount of the enzyme inhibitor, glucarolactone, which had penetrated the skin to a point where it would be available to inhibit glycosaminoglycanase in the immediate environment of the hair bulb.
The results obtained are shown in the following Table 1 in which the values given represent percentages of the glucarolactone dose applied topically which actually penetrates into and through the skin and is recovered at various levels. In addition, the actual amounts of penetrated glucarolactone is given. The results shown are the average and standard error of the mean of 33 determinations.

Setting [1] is: dermal (tapes + upper + lower section), 8% w/w glucarolactone formulation, mean ± SEM of 33 determinations.
[2] abbreviates: lower section of skin (hair follicles, dermal papillae), 8% w/w glucarolactone formulation, mean ± SEM of 33 determinations.
Setting [3] is: tape strips (skin surface), 8% w/w glucarolactone formulation, mean ± SEM of 33 determinations.
Setting [4] is: total (transdermal + dermal), 8% w/w glucarolactone formulation.
Where [5] appears, read: transdermal (receptor fluid), 8% w/w glucarolactone, 10% ethane diol formulation, mean ± SEM of 33 determinations.
The mark [6] stands for this setting: upper section of skin, 8% w/w glucarolactone formulation, mean ± SEM of 33 determinations.

Consider `O=C(O)[C@@H](O)[C@H]1OC(=O)[C@H](O)[C@H]1O` [glucarolactone], for which, under setting [1], the “Actual Amount GL Delivered, Dermal” value turned out to be 72.87 ± 16.62 µg and the “Percentage of Applied Dose, Dermal” value worked out at 3.719 ± 0.848%. Also, under setting [2], the “Actual Amount GL Delivered, lower section” value stood at 56.63 ± 14.33 µg and the “Percentage of Applied Dose, lower section” value is 2.890 ± 0.731%. Besides, under setting [3], the “Actual Amount GL Delivered, tapes” value was 2.38 ± 0.39 µg and the “Percentage of Applied Dose, tapes” value was 0.122 ± 0.020%. Further, under setting [4], the “Actual Amount GL Delivered, Total” value is 80.67 µg and the “Percentage of Applied Dose, Total” value turned out to be 4.117%. Besides, under setting [5], the “Actual Amount GL Delivered, Transdermal” value is 7.80 ± 2.47 µg and the “Percentage of Applied Dose, Transdermal” value came out at 0.398 ± 0.126%. Moreover, under setting [6], the “Actual Amount GL Delivered, upper section” value was 13.86 ± 3.00 µg and the “Percentage of Applied Dose, upper section” value worked out at 0.707 ± 0.153%.
